From patent publication US4147778A, “Antibiotic baumycin complex and components thereof” (Zaidan Hojin Biseibutsu Kagaku Kenkyu Kai, priority 1976, dated 1979)
Values after ≈ are worked out from the molar mass of the structure shown. “Also recorded” adds a separate entry of the source. Where two headings read alike, the source gives them in different places.

Assays:
mouse L-1210 leukemia = experiment: Prolongation of survival time of mice inoculated with L-1210 leukemia; type: in vivo, BDF1 mice; conditions: for Prolongation of the survival time T/C: BDF1 mice, 1 × 10^6 L-1210 cells i.p., day 30; for Inhibitory effect on mouse L-1210 leukemia: in words
From the text: (§1) For example, BDF1 mice were inoculated intraperitoneally with 1 × 10^6 L-1210 cells/mouse and 24 hrs. after inoculation the drug was intraperitoneally injected once daily for 10 days consecutively. On day 30, the % of prolongation of the survival time to control was as follows: […]

gram-positive bacteria = experiment: Antimicrobial activity against gram-positive bacteria; type: cell-based
From the text: (§2) The minimum inhibitory concentration of the present antibiotics as determined by the broth dilution method are shown in Table 1.

[1] = Acute toxicity, LD50 upon intraperitoneal injection; type: in vivo
From the text: The LD50 values upon intraperitoneal injection of the
antibiotics of the present invention are shown in the […]

Solubility = type: physicochemical
animal tumors = experiment: Inhibition of growth of animal tumors; type: in vivo; conditions: experimental animal tests
From the text: as §1

Coryne. bovis 1810 = experiment: Minimum inhibitory concentration, broth dilution method; type: cell-based
From the text: as §2

Proteus morganii = experiment: as above; type: cell-based; conditions: for MIC: Morganella morganii
From the text: as §2

Candida tropicalis = experiment: as above; type: cell-based
From the text: as §2

[2] = tested on: Ps. fluorescens NIHJB-254; experiment: as above; type: cell-based; conditions: for MIC: Pseudomonas fluorescens, NIHJB254, Ps. fluorescens NIHJB-254; for Minimum inhibitory concentration: Ps. fluorescens NIHJB-254
From the text: as §2

Sarcina lutea ATCC 9341 = experiment: as above; type: cell-based; conditions: for Minimum inhibitory concentration: Sarcina lutea ATCC 9341
From the text: as §2

Micrococcus flavs = experiment: as above; type: cell-based
From the text: as §2

Staph. aureus FDA209P = experiment: as above; type: cell-based; conditions: for MIC: Staphylococcus aureus, FDA209P
From the text: as §2

[3] = tested on: Mycobacterium smegmatis ATCC 607; experiment: as above; type: cell-based; conditions: for MIC: Mycolicibacterium smegmatis, ATCC607, Mycobacterium smegmatis ATCC 607; for Minimum inhibitory concentration: Mycobacterium smegmatis ATCC 607
From the text: as §2

B. subtilis ATCC 6633 = experiment: as above; type: cell-based; conditions: for Minimum inhibitory concentration: B. subtilis ATCC 6633
From the text: as §2

Staph. aureus Smith = experiment: as above; type: cell-based; conditions: for MIC: Staphylococcus aureus
From the text: as §2

B. cereus ATCC 9634 = experiment: as above; type: cell-based; conditions: for MIC: Bacillus cereus, ATCC9634, B. cereus ATCC 9634; for Minimum inhibitory concentration: B. cereus ATCC 9634
From the text: as §2

[4] = tested on: Candida albicans IAM 4905; experiment: as above; type: cell-based; conditions: for MIC: IAM4905, Candida albicans IAM 4905; for Minimum inhibitory concentration: Candida albicans IAM 4905
From the text: as §2

[5] = tested on: B. megarterium NRRL B-938; experiment: as above; type: cell-based
From the text: as §2

[6] = Toxicity in experimental animal tests; type: in vivo
animal tumor systems = conditions: reported in J. Antibiotics 27:254-259 (1974) and others; cited from earlier work
[7] = 0.06 mg./kg./day i.p. once daily for 10 days
[8] = in acidic water, DMSO, methylcellosolve, methanol, ethanol, n-propanol, n-butanol, ethyl acetate, butyl acetate, acetone, methyl ethyl ketone, methylene chloride and chloroform
[9] = in n-hexane, cyclohexane and petroleum ether
[10] = 0.125 mg./kg./day i.p. once daily for 10 days
[11] = 0.25 mg./kg./day i.p. once daily for 10 days
[12] = 0.5 mg./kg./day i.p. once daily for 10 days
[13] = 1 mg./kg./day i.p. once daily for 10 days
[14] = 2 mg./kg./day i.p. once daily for 10 days
[15] = 4 mg./kg./day i.p. once daily for 10 days
[16] = 6 mg./kg./day i.p. once daily for 10 days
[17] = 8 mg./kg./day i.p. once daily for 10 days
[18] = in acidic water, methyl cellosolve, methanol, ethanol, n-propanol and n-butanol
[19] = in ethyl acetate, acetone, methylene chloride, chloroform, carbon tetrachloride, benzene, toluene, ethyl ether and n-hexane

## COc1cccc2c1C(=O)c1c(O)c3c(c(O)c1C2=O)CC(O)(C(C)=O)CC3OC1CC(N)C(OC(CC(C)O)OC(C)CO)C(C)O1 (stereo not drawn) [BM-A1]
Mouse L-1210 leukemia; 0.004 mg./kg./day i.p. once daily for 10 days
  Prolongation of the survival time T/C: 131%
Mouse L-1210 leukemia; 0.008 mg./kg./day i.p. once daily for 10 days
  Prolongation of the survival time T/C: 131%
Mouse L-1210 leukemia; 0.015 mg./kg./day i.p. once daily for 10 days
  Prolongation of the survival time T/C: 155%
Mouse L-1210 leukemia; 0.03 mg./kg./day i.p. once daily for 10 days
  Prolongation of the survival time T/C: 187%
Mouse L-1210 leukemia; [7]
  Prolongation of the survival time T/C: > 300%
Mouse L-1210 leukemia
  Inhibitory effect on mouse L-1210 leukemia: marked inhibitory effects
gram-positive bacteria; listed as Baumycin A1
  Antimicrobial activity: inhibit the growth of gram-positive bacteria; also recorded: possess antimicrobial activity, especially against gram-positive bacteria
[1]
  LD50: 1.5 to 2.5 mg/kg
Solubility; [8]
  Solubility: Soluble
Solubility; [9]
  Solubility: Insoluble
Solubility; in water
  Solubility: Insoluble
Animal tumors; listed as Baumycin A1
  Inhibition of growth of animal tumors / antitumor activity: inhibit the growth of various animal tumors; also recorded: marked antitumor activity; also recorded: marked inhibitory action against animal malignant tumors, especially ascitic and solid tumors
Coryne. bovis 1810
  Minimum inhibitory concentration: 1.56 mg/L (≈ 2.32 µM)
Proteus morganii
  MIC: > 100 mg/L
Candida tropicalis
  MIC: 100 mg/L (≈ 148 µM)
[2]
  MIC: > 100 mg/L
Sarcina lutea ATCC 9341
  Minimum inhibitory concentration: 0.78 mg/L (≈ 1.16 µM)
Micrococcus flavs; Micrococcus, read-out: Minimum inhibitory concentration, Micrococcus flavs
  MIC: 0.78 mg/L (≈ 1.16 µM)
Staph. aureus FDA209P
  MIC: 1.56 mg/L (≈ 2.32 µM)
[3]
  MIC: 6.25 mg/L (≈ 9.28 µM)
B. subtilis ATCC 6633
  Minimum inhibitory concentration: 0.78 mg/L (≈ 1.16 µM)
Staph. aureus Smith
  MIC: 0.78 mg/L (≈ 1.16 µM)
B. cereus ATCC 9634
  MIC: 1.56 mg/L (≈ 2.32 µM)
[4]
  MIC: 100 mg/L (≈ 148 µM)
[5]
  Minimum inhibitory concentration: 1.56 mg/L (≈ 2.32 µM)
[6]
  Toxicity: low toxicity

## COc1cccc2c1C(=O)c1c(O)c3c(c(O)c1C2=O)CC(O)(C(C)=O)CC3OC1CC(N)C(OC(CC(C)O)OC(C)CO)C(C)O1 (stereo not drawn) [BM-A2]
Mouse L-1210 leukemia; [7]
  Prolongation of the survival time T/C: 141%
Mouse L-1210 leukemia; [10]
  Prolongation of the survival time T/C: 151%
Mouse L-1210 leukemia; [11]
  Prolongation of the survival time T/C: 163%
Mouse L-1210 leukemia; [12]
  Prolongation of the survival time T/C: 173%
Mouse L-1210 leukemia; [13]
  Prolongation of the survival time T/C: 167%
Mouse L-1210 leukemia
  Inhibitory effect on mouse L-1210 leukemia: marked inhibitory effects
gram-positive bacteria; listed as Baumycin A2
  Antimicrobial activity: inhibit the growth of gram-positive bacteria; also recorded: possess antimicrobial activity, especially against gram-positive bacteria
[1]
  LD50: 15 to 20 mg/kg
Solubility; [8]
  Solubility: Soluble
Solubility; [9]
  Solubility: Insoluble
Solubility; in water
  Solubility: Insoluble
Animal tumors; listed as Baumycin A2
  Inhibition of growth of animal tumors / antitumor activity: inhibit the growth of various animal tumors; also recorded: marked antitumor activity; also recorded: marked inhibitory action against animal malignant tumors, especially ascitic and solid tumors
Coryne. bovis 1810
  Minimum inhibitory concentration: 6.25 mg/L (≈ 9.28 µM)
Proteus morganii
  Minimum inhibitory concentration: > 100 mg/L
Candida tropicalis
  Minimum inhibitory concentration: 100 mg/L (≈ 148 µM)
[2]
  Minimum inhibitory concentration: 100 mg/L (≈ 148 µM)
Sarcina lutea ATCC 9341
  Minimum inhibitory concentration: 3.12 mg/L (≈ 4.63 µM)
Micrococcus flavs; Micrococcus flavs
  Minimum inhibitory concentration: 1.56 mg/L (≈ 2.32 µM)
Staph. aureus FDA209P
  Minimum inhibitory concentration: 3.12 mg/L (≈ 4.63 µM)
[3]
  Minimum inhibitory concentration: 12.5 mg/L (≈ 18.6 µM)
B. subtilis ATCC 6633
  Minimum inhibitory concentration: 3.12 mg/L (≈ 4.63 µM)
Staph. aureus Smith
  Minimum inhibitory concentration: 1.56 mg/L (≈ 2.32 µM)
B. cereus ATCC 9634
  Minimum inhibitory concentration: 3.12 mg/L (≈ 4.63 µM)
[4]
  Minimum inhibitory concentration: 100 mg/L (≈ 148 µM)
[5]
  Minimum inhibitory concentration: 6.25 mg/L (≈ 9.28 µM)
[6]
  Toxicity: low toxicity

## COc1cccc2c1C(=O)c1c(O)c3c(c(O)c1C2=O)CC(O)(C(C)=O)CC3OC1CC(N)C(OC(CC(C)O)OC(C)C(=O)O)C(C)O1 (stereo not drawn) [BM-B1]
Mouse L-1210 leukemia; [10]
  Prolongation of the survival time T/C: 93%
Mouse L-1210 leukemia; [11]
  Prolongation of the survival time T/C: 99%
Mouse L-1210 leukemia; [12]
  Prolongation of the survival time T/C: 99%
Mouse L-1210 leukemia; [13]
  Prolongation of the survival time T/C: 105%
Mouse L-1210 leukemia; [14]
  Prolongation of the survival time T/C: 117%
Mouse L-1210 leukemia; [15]
  Prolongation of the survival time T/C: 136%
Mouse L-1210 leukemia; [16]
  Prolongation of the survival time T/C: 165%
Mouse L-1210 leukemia; [17]
  Prolongation of the survival time T/C: 147%
Mouse L-1210 leukemia
  Inhibitory effect on mouse L-1210 leukemia: marked inhibitory effects
gram-positive bacteria; listed as Baumycin B1
  Antimicrobial activity: inhibit the growth of gram-positive bacteria; also recorded: possess antimicrobial activity, especially against gram-positive bacteria
[1]; in vivo, ip, read-out: LD50
  LD50: 40 to 60 mg/kg
Solubility; [18]
  Solubility: Soluble
Solubility; [19]
  Solubility: Insoluble
Solubility; in water, listed as Baumycin B1
  Solubility: Insoluble
Animal tumors; listed as Baumycin B1
  Inhibition of growth of animal tumors / antitumor activity: inhibit the growth of various animal tumors; also recorded: marked antitumor activity; also recorded: marked inhibitory action against animal malignant tumors, especially ascitic and solid tumors
Coryne. bovis 1810; Corynebacterium bovis
  MIC: 50 mg/L (≈ 72.7 µM)
Proteus morganii
  MIC: > 100 mg/L
Candida tropicalis
  MIC: 100 mg/L (≈ 145 µM)
[2]
  MIC: 100 mg/L (≈ 145 µM)
Sarcina lutea ATCC 9341; Micrococcus luteus, ATCC9341, Sarcina lutea ATCC 9341
  MIC: 50 mg/L (≈ 72.7 µM)
Micrococcus flavs; Micrococcus flavs, read-out: Minimum inhibitory concentration
  MIC: 50 mg/L (≈ 72.7 µM)
Staph. aureus FDA209P
  MIC: 50 mg/L (≈ 72.7 µM)
[3]
  MIC: 100 mg/L (≈ 145 µM)
B. subtilis ATCC 6633; Bacillus subtilis, ATCC6633, B. subtilis ATCC 6633
  MIC: 100 mg/L (≈ 145 µM)
Staph. aureus Smith
  MIC: 50 mg/L (≈ 72.7 µM)
B. cereus ATCC 9634
  MIC: 100 mg/L (≈ 145 µM)
[4]; Candida albicans
  MIC: 100 mg/L (≈ 145 µM)
[5]
  MIC: 100 mg/L (≈ 145 µM)
[6]
  Toxicity: low toxicity

## COc1cccc2c1C(=O)c1c(O)c3c(c(O)c1C2=O)CC(O)(C(C)=O)CC3OC1CC(N)C(OC(CC(C)O)OC(C)C(=O)O)C(C)O1 (stereo not drawn) [BM-B2]
Mouse L-1210 leukemia; [13]
  Prolongation of the survival time T/C: 99%
Mouse L-1210 leukemia; [14]
  Prolongation of the survival time T/C: 99%
Mouse L-1210 leukemia; [15]
  Prolongation of the survival time T/C: 111%
Mouse L-1210 leukemia; [16]
  Prolongation of the survival time T/C: 135%
Mouse L-1210 leukemia; [17]
  Prolongation of the survival time T/C: 155%
Mouse L-1210 leukemia
  Inhibitory effect on mouse L-1210 leukemia: marked inhibitory effects
gram-positive bacteria; listed as Baumycin B2
  Antimicrobial activity: inhibit the growth of gram-positive bacteria; also recorded: possess antimicrobial activity, especially against gram-positive bacteria
[1]
  LD50: 75 to 100 mg/kg
Solubility; [18]
  Solubility: Soluble
Solubility; [19]
  Solubility: Insoluble
Solubility; in water, listed as Baumycin B2
  Solubility: soluble
Animal tumors; listed as Baumycin B2
  Inhibition of growth of animal tumors / antitumor activity: inhibit the growth of various animal tumors; also recorded: marked antitumor activity; also recorded: marked inhibitory action against animal malignant tumors, especially ascitic and solid tumors
Coryne. bovis 1810
  Minimum inhibitory concentration: 50 mg/L (≈ 72.7 µM)
Proteus morganii
  Minimum inhibitory concentration: > 100 mg/L
Candida tropicalis
  Minimum inhibitory concentration: > 100 mg/L
[2]
  Minimum inhibitory concentration: > 100 mg/L
Sarcina lutea ATCC 9341
  Minimum inhibitory concentration: 25 mg/L (≈ 36.4 µM)
Micrococcus flavs; Micrococcus flavs
  Minimum inhibitory concentration: 50 mg/L (≈ 72.7 µM)
Staph. aureus FDA209P
  Minimum inhibitory concentration: 100 mg/L (≈ 145 µM)
[3]
  Minimum inhibitory concentration: > 100 mg/L
B. subtilis ATCC 6633
  Minimum inhibitory concentration: > 100 mg/L
Staph. aureus Smith
  Minimum inhibitory concentration: 50 mg/L (≈ 72.7 µM)
B. cereus ATCC 9634
  Minimum inhibitory concentration: > 100 mg/L
[4]
  Minimum inhibitory concentration: > 100 mg/L
[5]
  Minimum inhibitory concentration: > 100 mg/L
[6]
  Toxicity: low toxicity

## CC(=O)[C@]1(O)Cc2c(O)c3c(c(O)c2[C@@H](O[C@H]2C[C@H](N)[C@H](O)[C@H](C)O2)C1)C(=O)c1c(O)cccc1C3=O [carminomycin]
Animal tumor systems
  Activity in animal tumor systems: active in several animal tumor systems
